Results taken from publication PMC9579956 (RSC Medicinal Chemistry, 2022).

What follows are compounds tested against Mycobacterium thermoresistible (Mtr) LpqY (Mycolicibacterium thermoresistibile, UniProt G7CES0). Conditions: single dose MST screen against LpqY.
Type: binding

Sequence of Mycobacterium thermoresistible (Mtr) LpqY (G7CES0 29-471): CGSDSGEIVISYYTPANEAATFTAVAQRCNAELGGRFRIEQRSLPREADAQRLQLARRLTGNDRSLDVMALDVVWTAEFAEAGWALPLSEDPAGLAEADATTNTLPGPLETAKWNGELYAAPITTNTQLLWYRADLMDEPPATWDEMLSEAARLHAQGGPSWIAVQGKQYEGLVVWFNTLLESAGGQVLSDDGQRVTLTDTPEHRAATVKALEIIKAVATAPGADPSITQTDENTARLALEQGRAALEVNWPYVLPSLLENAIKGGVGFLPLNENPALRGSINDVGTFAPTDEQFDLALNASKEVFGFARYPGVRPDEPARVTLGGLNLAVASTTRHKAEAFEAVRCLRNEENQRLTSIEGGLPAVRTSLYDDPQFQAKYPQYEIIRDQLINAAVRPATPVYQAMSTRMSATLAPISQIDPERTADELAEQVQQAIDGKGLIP

Row | SMILES | Pathogen Box screen signal/noise ratio
1 | COc1ccc2nc(C)cc(OCC(=O)NCc3ccccc3)c2c1 [MMV687189] | 0.0536
2 | O=C(NCCN1CCCC1)c1cc(NCCCCN2CCC(F)(F)CC2)nc2ccc(Cl)cc12 [MMV667494] | 0.344
3 | Nc1ncc(-c2cn[nH]c2)cc1-c1nc2cc(Cl)cnc2[nH]1 [MMV023370] | 1.1
4 | CN(C)c1cc(NC(=O)Nc2ccccc2)c2ccccc2n1 [MMV006901] | 1.2
5 | CC(C)(C)n1nc(Cc2cccc3ccccc23)c2c(N)ncnc21 [MMV676599] | 0.6
6 | O=C1N(Cc2cc3ccccc3s2)CC2CN(Cc3ccccc3)CCN12 (stereo not shown) [MMV084603] | 1.3
7 | CC(=O)NCC1CN(c2ccc(-c3ccc(CO)cc3)c(F)c2)C(=O)O1 (stereo not shown) [MMV688508] | 0.8
8 | CNc1snc(C)c1C(=O)NCCOc1ccc(OC)cc1 [MMV688554] | 0.8
9 | CC1CC1C(=O)NC1CCN(CC2(c3ccccc3)CCCCC2)CC1 (stereo not shown) [MMV020120] | 1.1
10 | CO[C@H]1/C=C/O[C@@]2(C)Oc3c(C)c(O)c4c(O)c(/c(=C/NN5CCN(C)CC5)c(O)c4c3C2=O)=N\C(=O)/C(C)=C\C=C/[C@H](C)[C@H](O)[C@@H](C)[C@@H](O)[C@@H](C)[C@H](OC(C)=O)[C@@H]1C [MMV688775] | 1.1
11 | O=C(NC1CC1)c1ccc(N2CCC(Cc3ccccc3)CC2)nc1 [MMV024397] | 0.8
12 | O=C(Nc1cccnc1)c1c(O)c2cccc3c2n(c1=O)CC3 [MMV676395] | 2.1
13 | CC(C)n1nc(-c2cc3c(Cl)cccc3[nH]2)c2c(N)ncnc21 [MMV688417] | 1.3
14 | CCCn1nnc(NC(=O)COc2ccc(C3CCCCC3)cc2)n1 [MMV676597] | 0.551
15 | CC1CCCN(C(=O)C(C)Nc2cc(Cl)ccc2N2CCOCC2)C1 (stereo not shown) [MMV020388] | 0.556
16 | Cc1ccc2cc(C3NC(=O)c4ccccc4N3)c(Cl)nc2c1 (stereo not shown) [MMV019807] | 0.7
17 | COc1cccc2c(C)nc(N=C(N)N)nc12 [MMV000907] | 1.1
18 | Cc1cc(OCC(=O)NCc2ccccc2)c2cc(Br)ccc2n1 [MMV687747] | 0.856
19 | Cc1ccc(-c2cc(C(=O)Nc3cccnc3)c3cc(Br)ccc3n2)cc1 [MMV016838] | 0.75
20 | CO[C@@H]1CN(c2ccc(C#CC3(O)CN4CCC3CC4)c(Cc3ccccc3)n2)C[C@H]1O (stereo partly shown) [MMV688415] | 1.0
21 | CCCCS(=O)(=O)Nc1ccc2cnn(C)c2c1 [MMV687145] | 1.4
22 | CC(=O)N1CCN(c2ccc(Oc3ccc(Cl)cc3O)cc2)CC1 [MMV688330] | 1.8
23 | Clc1ccc(CN2CCN(C3=NCCN3)CC2)cc1Cl [MMV689060] | 0.464
24 | CN1CCCN(C(c2ccccc2)c2ccc(Cl)cc2)CC1 (stereo not shown) [MMV004168] | 0.9
25 | COc1cc(C2=NCCN2)ccc1-n1cc(-c2cccc(C3=NCCN3)c2)nn1 [MMV688474] | 0.217
26 | COc1cccc(-n2nnnc2S(C)(=O)=O)c1 [MMV272144] | 0.7
27 | OCCc1ccc(Nc2nccc(-c3nnc4ccccn34)n2)cc1 [MMV028694] | 1.5

Row | SMILES | Pathogen Box screen signal/noise ratio
28 | CC[C@@H]([C@H](C)O)n1ncn(-c2ccc(N3CCN(c4ccc(OC[C@@H]5CO[C@@](Cn6cncn6)(c6ccc(F)cc6F)C5)cc4)CC3)cc2)c1=O [MMV688774] | 3.4
29 | N#Cc1nc(-c2ccccc2)oc1S(=O)(=O)c1ccc(Cl)cc1 [MMV676412] | 0.6
30 | CC(c1cc(Cl)cc(Cl)c1)N(C)c1ncc2c(N)nc(N)nc2n1 (stereo not shown) [MMV689437] | 0.187
31 | O=C(NC1=NCCS1)c1sc2cc(F)ccc2c1Cl [MMV676584] | 1.1
32 | Nc1ccc(C(=O)Nc2ccc(-c3nc4ccccc4o3)cc2)cc1 [MMV007920] | 0.9
33 | NC(CC(=O)c1ccc(Cl)cc1Cl)C(Cl)(Cl)Cl (stereo not shown) [MMV676468] | 0.8
34 | COc1ccccc1CNC(=O)c1cc(C2CC2)nc2c1cnn2C(C)C [MMV020517] | 2.3
35 | Cc1cc(NCCc2ccccc2)nc(NC(=N)Nc2ccc(Cl)cc2)n1 [MMV021660] | 1.6
36 | Cc1ccccc1CN1CCC(O)(c2ccc(Cl)c(C(F)(F)F)c2)CC1 [MMV688846] | 0.25
37 | CCCn1c(CNc2ccccc2O)nc2ccccc21 [MMV676445] | 0.8
38 | c1ccc(Oc2ccc(-c3cc(CN4CCOCC4)[nH]n3)cc2)cc1 [MMV676161] | 1.1
39 | COc1ccc(C(=N)N)cc1-c1cn(-c2ccc(C(=N)N)cc2)nn1 [MMV675998] | 1.0
40 | Cc1nc(-c2ccccn2)nc(N(C)CCc2ccccc2)c1Cl [MMV658988] | 2.9
41 | Cn1ncc2c(N3CCOCC3)nc(NCCc3c[nH]c4ccccc34)nc21 [MMV676382] | 0.7
42 | CCc1nc2ccc(Cl)cn2c1C(=O)NCc1ccc(N2CCC(c3ccc(OC(F)(F)F)cc3)CC2)cc1 [MMV687696] | 1.0
43 | O=C(NCc1nnc2n1CCCCC2)c1ccc(-c2ccc(F)cc2)o1 [MMV688796] | 0.278
44 | Cc1cc(C(=O)Nc2cnn(Cc3ccc(Cl)cc3Cl)c2)no1 [MMV009054] | 0.179
45 | CC(=O)Nc1ccc(NC(=O)c2cc(-c3cc(Cl)ccc3O)[nH]n2)cc1 [MMV676380] | 1.2
46 | CNc1nnc(Sc2cnn(-c3ccccc3)c(=O)c2Cl)s1 [MMV688763] | 4.7
47 | Cc1ncc(-c2ccnc(Nc3ccc(S(C)(=O)=O)cc3)n2)n1C(C)C [MMV676604] | 4.2
48 | COc1ccc(C2=NN(C3CCCCCC3)C(=O)C2(C)C)cc1OCCCCOc1ccc(-c2nn[nH]n2)cc1 [MMV690028] | 2.5
49 | c1ccc(-c2nc(NC3CCCCC3)cc(C3CC3)n2)nc1 [MMV021013] | 0.0694
50 | CC(Oc1ccccc1)C(=O)Nc1nc(-c2ccccn2)cs1 (stereo not shown) [MMV676411] | 0.0833
51 | N#Cc1nc(-c2ccccc2F)oc1NCCc1ccccc1 [MMV676384] | 1.0
52 | O=C(c1ccc(F)cc1)N(CCNc1ccccc1)c1ccccc1 [MMV676204] | 0.644
53 | CC(=O)N1CCc2cc3nc(C)cc(C)c3cc21 [MMV054312] | 0.107
54 | FC(F)(F)c1cnc(Sc2nnc(-c3ccncc3)o2)c(Cl)c1 [MMV011765] | 1.6

Row | SMILES | Pathogen Box screen signal/noise ratio
55 | Cc1ccc(C(=O)Nc2ccc(S(=O)(=O)O)c3cc(S(=O)(=O)O)cc(S(=O)(=O)O)c23)cc1NC(=O)c1cccc(NC(=O)Nc2cccc(C(=O)Nc3cc(C(=O)Nc4ccc(S(=O)(=O)O)c5cc(S(=O)(=O)O)cc(S(=O)(=O)O)c45)ccc3C)c2)c1 [MMV637953] | 0.7
56 | Cc1nn(C(=O)Nc2cccc(C(F)(F)F)c2)c(C)c1Sc1ncccn1 [MMV688552] | 0.8
57 | CCCCc1ccc(NC(=O)Nc2ccc(O[C@H]3CCCC[C@@H]3N(C)c3ccccc3)c(F)c2)cc1 [MMV676063] | 0.0
58 | O=C(OCc1ccccc1)N1CCC(c2cc(-c3ccncc3)c(-c3ccc(F)cc3)[nH]2)CC1 [MMV688509] | 0.0833
59 | CCOC(=O)c1noc(N)c1-c1ccccc1 [MMV1236379] | 1.2
60 | C[C@H]1COc2c(N3CCN(C)CC3)c(F)cc3c(=O)c(C(=O)O)cn1c23 [MMV687798] | 0.9
61 | CCCn1c(NC(=O)c2ccc3ccccc3n2)nc2ccccc21 [MMV1030799] | 0.9
62 | CN1CCN(S(=O)(=O)c2ccc(-c3ccc4c(Nc5ccc6nn[nH]c6c5)ccnc4c3)cc2)CC1 [MMV687246] | 2.8
63 | CNc1cc(C)nc(C2CN(C(=O)c3n[nH]c4ccccc34)CCO2)c1 (stereo not shown) [MMV689709] | 2.1
64 | NS(=O)(=O)c1cccc(-c2ccc3ncc(N4CCOCC4)nc3c2)c1 [MMV023860] | 1.6
65 | CN1CCN(c2cc(-c3ccc(F)cc3)nc(-c3ccncc3)n2)CC1 [MMV688888] | 2.6
66 | N#Cc1ccc(-c2cnc(N)c(-c3ccc(C(N)=O)cc3)n2)cc1 [MMV085499] | 2.4
67 | Cc1nc(-c2ccccn2)nc(NCCc2ccc(S(C)(=O)=O)cc2)c1Cl [MMV658993] | 0.75
68 | CN1CCN(c2nccc3nc(-c4ccc(F)c(F)c4)[nH]c23)CC1 [MMV676260] | 0.635
69 | Cc1ccc(Oc2ccc(NC(=O)CNc3ccccc3N3CCCC3=O)cc2)cc1 [MMV020512] | 3.4
70 | Cc1[nH]c2ccccc2c1C(c1cccs1)N1CCN(C)CC1 (stereo not shown) [MMV688768] | 2.1
71 | COc1cc(-c2cc(-c3ccc(S(C)(=O)=O)cc3)cnc2N)ccc1O [MMV010576] | 3.1
72 | O=C(C(Cc1c[nH]c2ccccc12)NS(=O)(=O)c1ccc(Cl)cc1)N1CCCCC1 (stereo not shown) [MMV085210] | 2.9
73 | CC(C)(C)C(=O)N(CCCCCCN1C[C@H](O)[C@@H](O)[C@H](O)[C@H]1CO)C1CCCCCC1 [MMV688543] | 1.3
74 | Cc1ccc(-c2nc(CN(Cc3ccccn3)C(C)C)cs2)o1 [MMV1088520] | 0.0
75 | Cc1ccc2nc(C)c(-c3ccn(Cc4ccccc4)n3)n2c1 [MMV688939] | -0.2
76 | O=C1COCc2ccc(Br)cc2N1Cc1ccc(C(F)(F)F)cc1 [MMV032995] | 0.9
77 | CNCCC(Oc1ccc(C(F)(F)F)cc1)c1ccccc1 (stereo not shown) [MMV001561] | 0.9
78 | CC(Oc1cccc(Cl)c1)C(=O)Nc1ccc2oc(-c3ccncc3)nc2c1 (stereo not shown) [MMV688472] | 0.7
79 | OCc1ccc(-c2cncc(Nc3cccc(Cl)c3)c2)cc1 [MMV026468] | 0.563
